The record followed here is US11226337B2, “Chemoproteomic profiling of protein electrophilic and oxidative post-translational modifications” (Zenagem, LLC, priority 2017, dated 2022).

The test system of the assay is Uncharacterized protein (H7C469). As to the kind of experiment: SILAC RP-ABPP. Type of assay: cell-based, human. As to conditions: SILAC H/L. The method, then:
For MS-based experiments, labelling was performed in a similar manner as described above in Example 2, maintaining the same concentrations of probes. Modifications to this protocol included using isotopically ‘light’ and ‘heavy’ SILAC cells that were also grown to near complete confluence prior to treatment. Isotopically light cells were treated with the non-clickable hydrazine probe (at the same concentration as the probe in ‘enrichment’ experiments) or the probe in the presence of 10-fold excess non-clickable hydrazine probe as a competitor (in ‘competition’ experiments). Isotopically heavy cells were treated with the probe for both types of experiments. These treatments were performed in non-SILAC media. Following treatments, cells were washed with cold PBS to remove the probe-containing media, harvested by scraping, collected by centrifugation (1,400 g, 3 min, 4° C.), washed again by resuspension in cold PBS and frozen as pellets at −80° C. until use. […]
Heavy and light parent ion chromatograms associated with successfully identified peptides were extracted and compared using CIMAGE software as previously described^69. […] To ensure that the correct pair of peaks is quantified, chromatograms are extracted within a 10 ppm error tolerance of the predicted m/z, the signal-to-noise ratio must be >2.5 and the ‘co-elution correlation score’ and ‘envelope correlation score’ must have R^2 values ≥0.8. In addition, peptides detected as ‘singletons,’ where only the heavy ion of a peptide pair was identified, but for which passed all other filtering parameters, are given a default assigned ratio of ‘20,’ which is defined as any measured ratio that is ≥20.
To further eliminate false positives and any stochastic variability in the data, protein ratios were then determined by the median peptide ratio derived from three or more unique quantified peptides. […] Most importantly, there are no robustly measured ratios for proteins identified as probe 1 targets that had measured ratios of ˜1 with probe 2. […]

Molecules are shown by their SMILES.

The compound `C#CCNN.Cl` [probe 1, prop-2-yn-1-ylhydrazine hydrochloride] registered a competition ratioavg (probe 1 vs probe 1+10x probe 3, cell line not given) of 2.

Turning to `C#CCCNC(=O)c1ccc(NN)cc1.Cl` [probe 2, N-(but-3-yn-1-yl)-4-hydrazinylbenzamide hydrochloride], the enrichment ratioavg (probe 2 1 mM 0.5 h vs probe 4, MDA-MB-231) came to 14. This compound also displayed a competition ratioavg (probe 2 vs probe 2+10x probe 4, MDA-MB-231) of 5.
